ChEMBL document CHEMBL1201862, “PubChem BioAssay data set” (2004)
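Cells were grown in 96-well plates and exposed to each compound for 48 hours at five concentrations; endpoints were interpolated linearly between bracketing concentrations, or set to the highest concentration if not reached. GI50: concentration for 50% inhibition of growth.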 Activity calls are given as the source filed them. Rule as the data show it: active = GI50 up to about 1.1 µM and inactive = higher.

Assays:
Experiment in all cases: NCI anticancer screen, dose series, 48 h
U-251 = system: U-251
HOP-62 = system: HOP-62
OVCAR-5 = system: OVCAR-5
UO-31 = system: UO-31
Malme-3M = system: Malme-3M
HCT-116 = system: HCT-116
RPMI-8226 = system: RPMI-8226
M14 = system: M14
XF498 = system: XF498
HCT-15 = system: HCT-15
LXFL 529 = system: LXFL 529
LOX IMVI = system: LOX IMVI
SF-268 = system: SF-268
OVCAR-8 = system: OVCAR-8
NCI-H23 = system: NCI-H23
HL-60 = system: HL-60
TK-10 = system: TK-10
IGROV-1 = system: IGROV-1
SNB-19 = system: SNB-19
NCI-H226 = system: NCI-H226
SF-539 = system: SF-539
K562 = system: K562
UACC-62 = system: UACC-62
RXF 393 = system: RXF 393
HCC 2998 = system: HCC 2998
SK-MEL-28 = system: SK-MEL-28
SNB-78 = system: SNB-78
SK-MEL-2 = system: SK-MEL-2
NCI-H522 = system: NCI-H522
A549 = system: A549
NCI-H460 = system: NCI-H460
CCRF-CEM = system: CCRF-CEM
M19-MEL = system: M19-MEL
SN12C = system: SN12C
786-0 = system: 786-0
OVCAR-3 = system: OVCAR-3
KM12 = system: KM12
COLO 205 = system: COLO 205
ACHN = system: ACHN
DMS-273 = system: DMS-273
MOLT-4 = system: MOLT-4
OVCAR-4 = system: OVCAR-4
SK-MEL-5 = system: SK-MEL-5
SR = system: SR
HT-29 = system: HT-29
SF-295 = system: SF-295
SW-620 = system: SW-620
KM-20L2 = system: KM-20L2
EKVX = system: EKVX
UACC-257 = system: UACC-257
A498 = system: A498
SK-OV-3 = system: SK-OV-3
HOP-92 = system: HOP-92
DMS-114 = system: DMS-114
DLD-1 = system: DLD-1
CAKI-1 = system: CAKI-1
SNB-75 = system: SNB-75

C[s+]1c2ccccc2c2ccccc21
GI50 (U-251): > 100 µM (inactive)
GI50 (HOP-62): > 100 µM (inactive)
GI50 (OVCAR-5): > 100 µM (inactive)
GI50 (UO-31): 34.2 µM (inactive)
GI50 (Malme-3M): > 100 µM (inactive)
GI50 (HCT-116): > 100 µM (inactive)
GI50 (RPMI-8226): > 100 µM (inactive)
GI50 (M14): > 100 µM (inactive)
GI50 (XF498): > 100 µM (inactive)
GI50 (HCT-15): 92 µM
GI50 (LXFL 529): > 100 µM (inactive)
GI50 (LOX IMVI): > 100 µM (inactive)
GI50 (SF-268): > 100 µM (inactive)
GI50 (OVCAR-8): > 100 µM (inactive)
GI50 (NCI-H23): > 10 µM (inactive)
GI50 (HL-60): > 100 µM (inactive)
GI50 (TK-10): > 100 µM (inactive)
GI50 (IGROV-1): > 100 µM (inactive)
GI50 (SNB-19): 74.1 µM (inactive)
GI50 (NCI-H226): 58.5 µM (inactive)
GI50 (SF-539): > 100 µM (inactive)
GI50 (K562): > 100 µM (inactive)
GI50 (UACC-62): > 100 µM (inactive)
GI50 (RXF 393): > 100 µM (inactive)
GI50 (HCC 2998): > 100 µM (inactive)
GI50 (SK-MEL-28): > 100 µM (inactive)
GI50 (SNB-78): > 100 µM (inactive)
GI50 (SK-MEL-2): > 100 µM (inactive)
GI50 (NCI-H522): > 100 µM (inactive)
GI50 (A549): > 100 µM (inactive)
GI50 (NCI-H460): > 100 µM (inactive)
GI50 (CCRF-CEM): > 100 µM (inactive)
GI50 (M19-MEL): > 100 µM (inactive)
GI50 (SN12C): > 100 µM (inactive)
GI50 (786-0): > 100 µM (inactive)
GI50 (OVCAR-3): > 100 µM (inactive)
GI50 (KM12): > 100 µM (inactive)
GI50 (COLO 205): > 100 µM (inactive)
GI50 (ACHN): > 100 µM (inactive)
GI50 (DMS-273): > 100 µM (inactive)
GI50 (MOLT-4): > 100 µM (inactive)
GI50 (OVCAR-4): > 100 µM (inactive)
GI50 (SK-MEL-5): > 100 µM (inactive)
GI50 (SR): 92.5 µM (inactive)
GI50 (HT-29): > 100 µM (inactive)
GI50 (SF-295): > 100 µM (inactive)
GI50 (SW-620): > 100 µM (inactive)
GI50 (KM-20L2): > 100 µM (inactive)
GI50 (EKVX): > 100 µM (inactive)

NC(CCCC(N)P(=O)(O)O)C(=O)O (stereo not given)
GI50 (U-251): > 100 µM (inactive)
GI50 (HOP-62): > 100 µM (inactive)
GI50 (OVCAR-5): > 100 µM (inactive)
GI50 (UO-31): > 100 µM (inactive)
GI50 (HCT-116): > 100 µM (inactive)
GI50 (M14): > 100 µM (inactive)
GI50 (SF-268): > 100 µM (inactive)
GI50 (OVCAR-8): > 100 µM (inactive)
GI50 (NCI-H23): > 100 µM (inactive)
GI50 (HL-60): > 100 µM (inactive)
GI50 (TK-10): > 100 µM (inactive)
GI50 (IGROV-1): > 100 µM (inactive)
GI50 (SNB-19): > 100 µM (inactive)
GI50 (NCI-H226): > 100 µM (inactive)
GI50 (UACC-62): > 100 µM (inactive)
GI50 (RXF 393): > 100 µM (inactive)
GI50 (SK-MEL-28): > 100 µM (inactive)
GI50 (UACC-257): > 100 µM (inactive)
GI50 (SNB-78): > 100 µM (inactive)
GI50 (NCI-H522): > 100 µM (inactive)
GI50 (A549): > 10 µM (inactive)
GI50 (NCI-H460): > 100 µM (inactive)
GI50 (CCRF-CEM): > 100 µM (inactive)
GI50 (M19-MEL): > 100 µM (inactive)
GI50 (A498): > 100 µM (inactive)
GI50 (KM12): > 100 µM (inactive)
GI50 (SK-OV-3): > 100 µM (inactive)
GI50 (HOP-92): > 100 µM (inactive)
GI50 (ACHN): > 100 µM (inactive)
GI50 (DMS-273): > 100 µM (inactive)
GI50 (MOLT-4): > 100 µM (inactive)
GI50 (SR): > 100 µM (inactive)
GI50 (DMS-114): > 100 µM (inactive)
GI50 (HT-29): > 100 µM (inactive)
GI50 (SF-295): > 100 µM (inactive)
GI50 (KM-20L2): > 100 µM (inactive)
GI50 (EKVX): > 100 µM (inactive)

Brc1cc(C2OCCCO2)ccc1OCc1ccccc1
GI50 (HOP-62): 43.9 µM (inactive)
GI50 (OVCAR-5): 29.6 µM (inactive)
GI50 (UO-31): 52.4 µM (inactive)
GI50 (Malme-3M): 31.8 µM (inactive)
GI50 (RPMI-8226): 25.9 µM (inactive)
GI50 (M14): 33.5 µM (inactive)
GI50 (XF498): 59.3 µM (inactive)
GI50 (HCT-15): 48 µM
GI50 (LXFL 529): 45.9 µM (inactive)
GI50 (LOX IMVI): 25.8 µM (inactive)
GI50 (SF-268): 76.4 µM (inactive)
GI50 (OVCAR-8): 57.3 µM (inactive)
GI50 (NCI-H23): 45.6 µM (inactive)
GI50 (HL-60): 25.2 µM (inactive)
GI50 (TK-10): 40.7 µM (inactive)
GI50 (IGROV-1): > 100 µM (inactive)
GI50 (SNB-19): 88.7 µM (inactive)
GI50 (NCI-H226): 73.1 µM (inactive)
GI50 (SF-539): 64.3 µM (inactive)
GI50 (K562): 34.5 µM (inactive)
GI50 (DLD-1): 37 µM (inactive)
GI50 (UACC-62): 47.9 µM (inactive)
GI50 (RXF 393): 67.9 µM (inactive)
GI50 (HCC 2998): 30.3 µM (inactive)
GI50 (SK-MEL-28): > 100 µM (inactive)
GI50 (UACC-257): 31.9 µM (inactive)
GI50 (SNB-78): 34.8 µM (inactive)
GI50 (SK-MEL-2): 81.7 µM (inactive)
GI50 (NCI-H522): 26.9 µM (inactive)
GI50 (A549): 64.6 µM (inactive)
GI50 (NCI-H460): 50.9 µM (inactive)
GI50 (CCRF-CEM): 41.2 µM (inactive)
GI50 (M19-MEL): 66.5 µM (inactive)
GI50 (A498): > 100 µM (inactive)
GI50 (CAKI-1): 54 µM (inactive)
GI50 (SN12C): > 100 µM (inactive)
GI50 (786-0): 40.4 µM (inactive)
GI50 (OVCAR-3): 74.1 µM (inactive)
GI50 (KM12): 33.7 µM (inactive)
GI50 (COLO 205): 27.4 µM (inactive)
GI50 (SK-OV-3): > 100 µM (inactive)
GI50 (HOP-92): 33.6 µM (inactive)
GI50 (ACHN): 73.6 µM (inactive)
GI50 (DMS-273): 47.8 µM (inactive)
GI50 (MOLT-4): 24.9 µM (inactive)
GI50 (OVCAR-4): 31.2 µM (inactive)
GI50 (SK-MEL-5): 27.2 µM (inactive)
GI50 (DMS-114): 44.3 µM (inactive)
GI50 (HT-29): 17.5 µM (inactive)
GI50 (SF-295): 52.8 µM (inactive)
GI50 (SNB-75): 45.3 µM (inactive)
GI50 (SW-620): 30.1 µM (inactive)
GI50 (KM-20L2): > 10 µM (inactive)
GI50 (EKVX): 52.8 µM (inactive)
